Data taken from patent US20100267561A1, “HERBICIDAL PYRIDAZINONE DERIVATIVES” (priority 2007, published 2010).

How the values were obtained:
Assay in all cases: Test E pre-/postemergence plant response
Assay type in all cases: in vivo
[1] = test system: southern (S.) sandbur (Cenchrus echinatus); conditions: scale 0 to 100
Summary of the method: (§1)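 Steps: sow seeds; apply compound preemergence in a non-phytotoxic solvent/surfactant formulation; in parallel, spray the same formulation postemergence on 1- to 4-leaf plants (2–18 cm); hold 14–21 days in a greenhouse; rate visually vs controls, 0 = no effect, 100 = complete control.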

[2] = test system: broadleaf signalgrass (Brachiaria platyphylla); conditions: scale 0 to 100
Summary of the method: as §1

[3] = test system: large crabgrass (Digitaria sanguinalis); conditions: scale 0 to 100
Summary of the method: as §1

[4] = test system: surinam grass (Brachiaria decumbens); conditions: scale 0 to 100
Summary of the method: as §1

[5] = test system: purple nutsedge (Cyperus rotundus); conditions: scale 0 to 100
Summary of the method: as §1

[6] = test system: barnyardgrass (Echinochloa crus-galli); conditions: scale 0 to 100
Summary of the method: as §1

[7] = test system: green foxtail (Setaria viridis); conditions: scale 0 to 100
Summary of the method: as §1

[8] = test system: naked crabgrass (Digitaria nuda); conditions: scale 0 to 100
Summary of the method: as §1

[9] = test system: Italian ryegrass (Lolium multiflorum); conditions: scale 0 to 100
Summary of the method: as §1

[10] = test system: black mustard (Brassica nigra); conditions: scale 0 to 100
Summary of the method: as §1

[11] = test system: common purslane (Portulaca oleracea); conditions: scale 0 to 100
Summary of the method: as §1

[12] = test system: common mallow (Malva sylvestris); conditions: Postemergence, scale 0 to 100
Summary of the method: as §1

[13] = test system: quackgrass (Elytrigia repens); conditions: scale 0 to 100
Summary of the method: as §1

[14] = test system: pitted morningglory (Ipomoea lacunosa); conditions: scale 0 to 100
Summary of the method: as §1

[15] = test system: guineagrass (Panicum maximum); conditions: scale 0 to 100
Summary of the method: as §1

In the case of `CCc1cc(-c2ccc(Cl)cc2)nn1-c1c(O)cnn(C)c1=O` [Compound 21], the “Plant response rating, Sandbur, S.” value ([1]; 16 g ai/ha, Preemergence) is reported as 98, the “Plant response rating, Sandbur, S.” value ([1]; 31 g ai/ha, Preemergence) is reported as 100 and the “Plant response rating, Sandbur, S.” value ([1]; 62 g ai/ha, Preemergence) is reported as 100. For the same compound, the “Plant response rating, Sandbur, S.” value ([1]; Postemergence, 8 g ai/ha) was 80, the “Plant response rating, Sandbur, S.” value ([1]; Postemergence, 16 g ai/ha) was 80 and the “Plant response rating, Sandbur, S.” value ([1]; Postemergence, 31 g ai/ha) was 95. For the same compound, the “Plant response rating, Sandbur, S.” value ([1]; Postemergence, 62 g ai/ha) was 100, the “Plant response rating, Signalgrass” value ([2]; 16 g ai/ha, Preemergence) was 98 and the “Plant response rating, Signalgrass” value ([2]; 31 g ai/ha, Preemergence) was 100. For the same compound, the “Plant response rating, Signalgrass” value ([2]; 62 g ai/ha, Preemergence) was 100, the “Plant response rating, Signalgrass” value ([2]; Postemergence, 8 g ai/ha) was 80 and the “Plant response rating, Signalgrass” value ([2]; Postemergence, 16 g ai/ha) was 90. For the same compound, the “Plant response rating, Signalgrass” value ([2]; Postemergence, 31 g ai/ha) was 100, the “Plant response rating, Signalgrass” value ([2]; Postemergence, 62 g ai/ha) was 100 and the “Plant response rating, Crabgrass, Large” value ([3]; 8 g ai/ha, Preemergence) was 65. The “Plant response rating, Crabgrass, Large” value ([3]; 16 g ai/ha, Preemergence) was 100, the “Plant response rating, Crabgrass, Large” value ([3]; 31 g ai/ha, Preemergence) was 100 and the “Plant response rating, Crabgrass, Large” value ([3]; 62 g ai/ha, Preemergence) was 100. The “Plant response rating, Crabgrass, Large” value ([3]; Postemergence, 8 g ai/ha) was 80, the “Plant response rating, Crabgrass, Large” value ([3]; Postemergence, 16 g ai/ha) was 90 and the “Plant response rating, Crabgrass, Large” value ([3]; Postemergence, 31 g ai/ha) was 95. For the same compound, the “Plant response rating, Crabgrass, Large” value ([3]; Postemergence, 62 g ai/ha) was 98, the “Plant response rating, Surinam Grass” value ([4]; 16 g ai/ha, Preemergence) was 100 and the “Plant response rating, Surinam Grass” value ([4]; 31 g ai/ha, Preemergence) was 100. The “Plant response rating, Surinam Grass” value ([4]; 62 g ai/ha, Preemergence) was 100, the “Plant response rating, Surinam Grass” value ([4]; Postemergence, 8 g ai/ha) was 95 and the “Plant response rating, Surinam Grass” value ([4]; Postemergence, 16 g ai/ha) was 95. The “Plant response rating, Surinam Grass” value ([4]; Postemergence, 31 g ai/ha) was 100, the “Plant response rating, Surinam Grass” value ([4]; Postemergence, 62 g ai/ha) was 100 and the “Plant response rating, Nutsedge, Purple” value ([5]; 16 g ai/ha, Preemergence) was 0. The “Plant response rating, Nutsedge, Purple” value ([5]; 31 g ai/ha, Preemergence) was 0, the “Plant response rating, Nutsedge, Purple” value ([5]; 62 g ai/ha, Preemergence) was 0 and the “Plant response rating, Nutsedge, Purple” value ([5]; Postemergence, 8 g ai/ha) was 0. For the same compound, the “Plant response rating, Nutsedge, Purple” value ([5]; Postemergence, 16 g ai/ha) was 0, the “Plant response rating, Nutsedge, Purple” value ([5]; Postemergence, 31 g ai/ha) was 0 and the “Plant response rating, Nutsedge, Purple” value ([5]; Postemergence, 62 g ai/ha) was 0. For the same compound, the “Plant response rating, Barnyardgrass” value ([6]; 8 g ai/ha, Preemergence) was 95, the “Plant response rating, Barnyardgrass” value ([6]; 16 g ai/ha, Preemergence) was 100 and the “Plant response rating, Barnyardgrass” value ([6]; 31 g ai/ha, Preemergence) was 100. The “Plant response rating, Barnyardgrass” value ([6]; 62 g ai/ha, Preemergence) was 100, the “Plant response rating, Barnyardgrass” value ([6]; Postemergence, 8 g ai/ha) was 100 and the “Plant response rating, Barnyardgrass” value ([6]; Postemergence, 16 g ai/ha) was 100. For the same compound, the “Plant response rating, Barnyardgrass” value ([6]; Postemergence, 31 g ai/ha) was 100, the “Plant response rating, Barnyardgrass” value ([6]; Postemergence, 62 g ai/ha) was 100 and the “Plant response rating, Foxtail, Green” value ([7]; 8 g ai/ha, Preemergence) was 75. The “Plant response rating, Foxtail, Green” value ([7]; 16 g ai/ha, Preemergence) was 100, the “Plant response rating, Foxtail, Green” value ([7]; 31 g ai/ha, Preemergence) was 100 and the “Plant response rating, Foxtail, Green” value ([7]; 62 g ai/ha, Preemergence) was 100. For the same compound, the “Plant response rating, Foxtail, Green” value ([7]; Postemergence, 8 g ai/ha) was 65, the “Plant response rating, Foxtail, Green” value ([7]; Postemergence, 16 g ai/ha) was 75 and the “Plant response rating, Foxtail, Green” value ([7]; Postemergence, 31 g ai/ha) was 95. The “Plant response rating, Foxtail, Green” value ([7]; Postemergence, 62 g ai/ha) was 100, the “Plant response rating, Crabgrass, Naked” value ([8]; 16 g ai/ha, Preemergence) was 95 and the “Plant response rating, Crabgrass, Naked” value ([8]; 31 g ai/ha, Preemergence) was 100. The “Plant response rating, Crabgrass, Naked” value ([8]; 62 g ai/ha, Preemergence) was 100, the “Plant response rating, Crabgrass, Naked” value ([8]; Postemergence, 8 g ai/ha) was 80 and the “Plant response rating, Crabgrass, Naked” value ([8]; Postemergence, 16 g ai/ha) was 90. The “Plant response rating, Crabgrass, Naked” value ([8]; Postemergence, 31 g ai/ha) was 98, the “Plant response rating, Crabgrass, Naked” value ([8]; Postemergence, 62 g ai/ha) was 100 and the “Plant response rating, Ryegrass, Italian” value ([9]; 16 g ai/ha, Preemergence) was 100. For the same compound, the “Plant response rating, Ryegrass, Italian” value ([9]; 31 g ai/ha, Preemergence) was 100, the “Plant response rating, Ryegrass, Italian” value ([9]; 62 g ai/ha, Preemergence) was 100 and the “Plant response rating, Ryegrass, Italian” value ([9]; Postemergence, 8 g ai/ha) was 80. The “Plant response rating, Ryegrass, Italian” value ([9]; Postemergence, 16 g ai/ha) was 98, the “Plant response rating, Ryegrass, Italian” value ([9]; Postemergence, 31 g ai/ha) was 100 and the “Plant response rating, Ryegrass, Italian” value ([9]; Postemergence, 62 g ai/ha) was 100. For the same compound, the “Plant response rating, Mustard, Black” value ([10]; 8 g ai/ha, Preemergence) was 0, the “Plant response rating, Mustard, Black” value ([10]; 16 g ai/ha, Preemergence) was 0 and the “Plant response rating, Mustard, Black” value ([10]; 31 g ai/ha, Preemergence) was 0. For the same compound, the “Plant response rating, Mustard, Black” value ([10]; 62 g ai/ha, Preemergence) was 0, the “Plant response rating, Mustard, Black” value ([10]; Postemergence, 8 g ai/ha) was 0 and the “Plant response rating, Mustard, Black” value ([10]; Postemergence, 16 g ai/ha) was 0. The “Plant response rating, Mustard, Black” value ([10]; Postemergence, 31 g ai/ha) was 0, the “Plant response rating, Mustard, Black” value ([10]; Postemergence, 62 g ai/ha) was 0 and the “Plant response rating, Purslane” value ([11]; 16 g ai/ha, Preemergence) was 0. For the same compound, the “Plant response rating, Purslane” value ([11]; 31 g ai/ha, Preemergence) was 0, the “Plant response rating, Purslane” value ([11]; 62 g ai/ha, Preemergence) was 0 and the “Plant response rating, Purslane” value ([11]; Postemergence, 8 g ai/ha) was 0. The “Plant response rating, Purslane” value ([11]; Postemergence, 16 g ai/ha) was 0, the “Plant response rating, Purslane” value ([11]; Postemergence, 31 g ai/ha) was 0 and the “Plant response rating, Purslane” value ([11]; Postemergence, 62 g ai/ha) was 0. For the same compound, the “Plant response rating, Mallow” value ([12]; 8 g ai/ha) was 0, the “Plant response rating, Mallow” value ([12]; 16 g ai/ha) was 0 and the “Plant response rating, Mallow” value ([12]; 31 g ai/ha) was 0. For the same compound, the “Plant response rating, Mallow” value ([12]; 62 g ai/ha) was 0, the “Plant response rating, Quackgrass” value ([13]; 16 g ai/ha, Preemergence) was 50 and the “Plant response rating, Quackgrass” value ([13]; 31 g ai/ha, Preemergence) was 90. For the same compound, the “Plant response rating, Quackgrass” value ([13]; 62 g ai/ha, Preemergence) was 95, the “Plant response rating, Quackgrass” value ([13]; Postemergence, 8 g ai/ha) was 20 and the “Plant response rating, Quackgrass” value ([13]; Postemergence, 16 g ai/ha) was 35. The “Plant response rating, Quackgrass” value ([13]; Postemergence, 31 g ai/ha) was 40, the “Plant response rating, Quackgrass” value ([13]; Postemergence, 62 g ai/ha) was 80 and the “Plant response rating, Morningglory” value ([14]; 16 g ai/ha, Preemergence) was 0. For the same compound, the “Plant response rating, Morningglory” value ([14]; 31 g ai/ha, Preemergence) was 0, the “Plant response rating, Morningglory” value ([14]; 62 g ai/ha, Preemergence) was 0 and the “Plant response rating, Morningglory” value ([14]; Postemergence, 8 g ai/ha) was 0. The “Plant response rating, Morningglory” value ([14]; Postemergence, 16 g ai/ha) was 0, the “Plant response rating, Morningglory” value ([14]; Postemergence, 31 g ai/ha) was 0 and the “Plant response rating, Morningglory” value ([14]; Postemergence, 62 g ai/ha) was 0. The “Plant response rating, Guineagrass” value ([15]; 16 g ai/ha, Preemergence) was 100, the “Plant response rating, Guineagrass” value ([15]; 31 g ai/ha, Preemergence) was 100 and the “Plant response rating, Guineagrass” value ([15]; 62 g ai/ha, Preemergence) was 100. The “Plant response rating, Guineagrass” value ([15]; Postemergence, 8 g ai/ha) was 95, the “Plant response rating, Guineagrass” value ([15]; Postemergence, 16 g ai/ha) was 98 and the “Plant response rating, Guineagrass” value ([15]; Postemergence, 31 g ai/ha) was 100. For the same compound, the “Plant response rating, Guineagrass” value ([15]; Postemergence, 62 g ai/ha) was 100.
